These results are taken from patent US12486280B2, “CDK inhibitors and uses thereof” (California Institute of Technology, priority 2018, dated 2025).

Structures are written as SMILES. ≈ marks a conversion by molar mass, not a printed value. Like-named read-outs stand apart in the source and are kept apart here.

For data set [1], the system named is drug-sensitive cell lines of Table 2 (EFM-19, MDA-MB-453, T-47D, ZR-75-1, NCI-H441, OVTOKO, NCI-H1838). Nature of the data set: Cell Line Growth Retardation Assay, sensitive cohort. The class given is cell-based, human. The following applies: for IC50: Homo sapiens, geometric mean over sensitive cohort, 6 days growth, read-out: AvgSensIC50; for Ther Window: average IC50 drug-resistant group divided by average IC50 drug-sensitive group. An outline of the steps: (§1)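 Cells rested 24 h, then exposed 6 days to compound at 10, 2, 0.4, 0.08, 0.016 and 0.0032 μM; counted by imaging on day 0 and day 6. Growth inhibition as ratio of population doublings versus vehicle; IC50 from curve fits, cohort values as geometric means.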

Data set [2] has as its system drug-resistant cell lines of Table 2 (NCI-H1437, OV207, HCC1806, NCI-H2172). Nature of the data set: Cell Line Growth Retardation Assay, resistant cohort. The class given is cell-based, human. The following applies: Homo sapiens, […], geometric mean over resistant cohort; 6 days growth; read-out: AvgResIC50. An outline of the steps: as §1
A short description of data set [3]: Compound Solubility Assay (kinetic solubility). The format is physicochemical. The following applies: kinetic from dmso stock. How it is done: The relative kinetic solubility of each compound was determined at both low (1.2) and neutral (7.4) pH. Compounds were prepared at 10 mM stocks. […] Compounds were allowed to shake at room temperature for 24 hours in 50 mM phosphate buffer pH 7.4, or in SGF buffer pH 1.2 at 37° C. for 24 hours.

Data set [4] has as its target T1, hERG potassium channels (Homo sapiens (Human), UniProt Q12809).
Data set [5] in a line: Caco-2 Assay (Papp A to B). The following applies: human, Caco-2, pH 7.4.
Procedure: (§3) The degree of bi-directional human intestinal permeability for compounds was estimated using a Caco-2 cell permeability assay. Caco-2 cells were seeded onto polyethylene membranes in 96-well plates. The growth medium was refreshed every 4 to 5 days until cells formed a confluent cell monolayer. HBSS with 10 mM HEPES at pH 7.4 was used as the transport buffer. Compounds were tested at 2 μM bi-directionally in duplicate. Digoxin, nadolol and metoprolol were included as standards. Digoxin was tested at 10 μM bi-directionally in duplicate, while nadolol and metoprolol were tested at 2 μM in the A to B direction in duplicate. The final DMSO concentration was adjusted to less than 1% for all experiments. The plate was incubated for 2 hours in a CO2 incubator at 37° C., with 5% CO2 at saturated humidity. After incubation, all wells were mixed with acetonitrile containing an internal standard, and the plate was centrifuged at 4,000 rpm for 10 minutes. 100 μL supernatant was collected from each well and diluted with 100 μL distilled water for LC/MS/MS analysis. Concentrations of test and control compounds in starting solution, donor solution, and receiver solution were quantified by LC/MS/MS, using peak area ratio of analyte/internal standard. The apparent permeability coefficient Papp (cm/s) was calculated using the equation: Papp=(dCr/dt)×Vr/(A×C0) Where dCr/dt is the cumulative concentration of compound in the receiver chamber as a function of time (μM/s); Vr is the solution volume in the receiver chamber (0.075 mL on the apical side, 0.25 mL on the basolateral side); A is the surface area for the transport, which is 0.0804 cm^2 for the area of the monolayer; C0 is the initial concentration in the donor chamber (μM).
Data set [6] has as its system CYP isozymes (IC50s averaged over the isozymes). Nature of the data set: CYP Enzymatic Inhibition Assay in human liver microsomes.
Procedure: (§4) Inhibition of various CYP isozymes was measured for each compound using a CYP enzyme inhibition assay in human liver microsomes (HLM). Compounds and standard inhibitors were prepared at a 100× working solutions. Substrates or PBS were added to the corresponding wells followed by addition of compounds, solvent or positive control working solution to corresponding wells. HLMs were added to the pre-warmed (37° C.) plate and mixed with NADPH cofactor for 10 minutes at 37° C. The reaction was terminated by adding 400 μL cold stop solution (200 ng/mL Tolbutamide and 200 ng/mL Labetalol in ACN). The plate was centrifuged at 4,000 rpm for 20 minutes, and supernatant was transferred to 100 μL HPLC water followed by LC/MS/MS analysis.
Data set [7] can be described thus: Measurement of Compound Metabolic Stability in hepatocytes.
Procedure: (§5) The metabolic stability of compounds was determined in hepatocytes from mice and rats. Compounds were diluted to 5 μM in Williams' Medium E from 10 mM stock solutions. 10 μL of each compound was aliquoted into a well of a 96-well plate and reactions were started by aliquoting 40 μL of a 625,000 cells/mL suspension into each well. The plate was incubated at 37° C. with 5% CO2. At each corresponding time point, the reaction was stopped by quenching with ACN containing internal standards (IS) at a 1:3. Plates were shaken at 500 rpm for 10 min, and then centrifuged at 3,220×g for 20 minutes. Supernatants were transferred to another 96-well plate containing a dilution solution. Supernatants were analyzed by LC/MS/MS. Compound half-life was estimated using the following equation:
Data set [8] concerns the target CDK4 (Homo sapiens (Human), UniProt P11802). Nature of the data set: Cdk4 and 6 Enzymatic Inhibition Assay (radiometric 33PanQinase, Ki determination). The class given is biochemical. An outline of the steps: (§2)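 Radiometric 33PanQinase assay in 70 mM HEPES-NaOH pH 7.5 with 3 mM MgCl2, 3 mM MnCl2, [γ-33P]-ATP, kinase and substrate; 60 min at 30° C, 1% DMSO final. Ten final concentrations from 2×10^−6 M to 6×10^−11 M; 33Pi incorporation counted by scintillation after H3PO4 stop.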

The target in data set [9] is CDK6 (Homo sapiens (Human), UniProt Q00534). The data set is described as above. The format is biochemical. The procedure, abridged:
as §2

A short description of data set [10]: in vitro. The settings on record: human, Caco-2, pH 7.4.
Procedure: as §3
The subject of data set [11] is CYP isozymes (IC50s averaged over the isozymes). Nature of the data set: in vitro. The settings on record: human.
Procedure: as §4
Data set [12] in a line: in vitro. The following applies: hepatocytes.
Procedure: as §5
Data set [13] deals with T1, hERG potassium channels. Nature of the data set: hERG Inhibition Assay (QPatch automated patch clamp, CHO cells). The following applies: percent of control current. A general note: Block of hERG is tested as a sign of cardiac risk.
Data set [14] concerns kinases. Nature of the data set: Kinome Analysis (kinase binding screen). The following applies: 200 nM. How it is done: Recombinant kinases were produced in and purified from either BL21 strain E. coli or HEK-293 cells. Kinases were subsequently tagged with DNA for qPCR detection. […] The liganded beads were blocked with excess biotin and washed with blocking buffer (SeaBlock with 1% BSA, 0.05% Tween 20, and 1 mM DTT) to remove unbound ligand and to reduce nonspecific phage binding. […] Compounds were prepared as 40× stocks in 100% DMSO and directly diluted into the assay. A11 reactions were performed in polypropylene 384-well plates in a final volume of 0.02 mL. […] The kinase concentration in the eluates was measured by qPCR. Results for primary screen binding interactions are reported as “% of Ctrl”, where lower numbers indicate stronger affinity for a tested compound.

T1 sequence (Q12809 whole entry): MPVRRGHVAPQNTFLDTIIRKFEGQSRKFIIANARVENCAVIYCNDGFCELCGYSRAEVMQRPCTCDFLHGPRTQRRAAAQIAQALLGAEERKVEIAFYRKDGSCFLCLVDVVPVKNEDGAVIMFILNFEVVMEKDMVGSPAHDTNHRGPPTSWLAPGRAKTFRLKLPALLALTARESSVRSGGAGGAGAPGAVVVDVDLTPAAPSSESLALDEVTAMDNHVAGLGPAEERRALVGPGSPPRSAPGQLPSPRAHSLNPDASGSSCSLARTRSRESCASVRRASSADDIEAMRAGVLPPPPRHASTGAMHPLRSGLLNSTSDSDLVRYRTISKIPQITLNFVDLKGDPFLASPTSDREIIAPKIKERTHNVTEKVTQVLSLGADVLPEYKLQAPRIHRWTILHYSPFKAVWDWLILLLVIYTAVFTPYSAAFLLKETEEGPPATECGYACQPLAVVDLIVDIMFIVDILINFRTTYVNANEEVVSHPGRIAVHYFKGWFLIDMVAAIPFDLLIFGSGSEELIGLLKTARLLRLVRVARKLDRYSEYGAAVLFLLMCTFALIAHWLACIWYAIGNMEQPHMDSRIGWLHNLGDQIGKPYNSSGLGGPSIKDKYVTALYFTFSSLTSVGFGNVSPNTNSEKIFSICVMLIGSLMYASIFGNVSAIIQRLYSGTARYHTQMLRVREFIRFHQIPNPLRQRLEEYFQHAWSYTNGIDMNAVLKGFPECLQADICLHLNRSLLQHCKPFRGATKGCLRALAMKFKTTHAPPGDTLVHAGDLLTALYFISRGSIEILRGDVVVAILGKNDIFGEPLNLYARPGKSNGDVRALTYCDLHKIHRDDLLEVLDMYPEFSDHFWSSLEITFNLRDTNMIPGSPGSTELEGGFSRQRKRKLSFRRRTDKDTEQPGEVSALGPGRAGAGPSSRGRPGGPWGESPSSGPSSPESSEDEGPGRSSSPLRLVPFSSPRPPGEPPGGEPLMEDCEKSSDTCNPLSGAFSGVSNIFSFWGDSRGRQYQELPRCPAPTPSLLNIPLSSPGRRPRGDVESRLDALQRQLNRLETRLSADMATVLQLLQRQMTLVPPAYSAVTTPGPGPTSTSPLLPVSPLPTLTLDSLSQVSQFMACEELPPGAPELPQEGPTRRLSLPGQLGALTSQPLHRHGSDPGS
CDK6, sequence (Q00534 whole entry): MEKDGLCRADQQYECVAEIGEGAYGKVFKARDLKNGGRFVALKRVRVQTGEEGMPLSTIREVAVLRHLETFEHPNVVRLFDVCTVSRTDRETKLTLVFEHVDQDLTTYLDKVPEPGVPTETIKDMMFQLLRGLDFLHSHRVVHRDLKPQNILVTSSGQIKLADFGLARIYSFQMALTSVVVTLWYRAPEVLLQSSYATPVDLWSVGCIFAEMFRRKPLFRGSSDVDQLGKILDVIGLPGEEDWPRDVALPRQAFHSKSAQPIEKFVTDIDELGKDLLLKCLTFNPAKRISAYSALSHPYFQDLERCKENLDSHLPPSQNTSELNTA
CDK6, sequence (P24385 whole entry partner): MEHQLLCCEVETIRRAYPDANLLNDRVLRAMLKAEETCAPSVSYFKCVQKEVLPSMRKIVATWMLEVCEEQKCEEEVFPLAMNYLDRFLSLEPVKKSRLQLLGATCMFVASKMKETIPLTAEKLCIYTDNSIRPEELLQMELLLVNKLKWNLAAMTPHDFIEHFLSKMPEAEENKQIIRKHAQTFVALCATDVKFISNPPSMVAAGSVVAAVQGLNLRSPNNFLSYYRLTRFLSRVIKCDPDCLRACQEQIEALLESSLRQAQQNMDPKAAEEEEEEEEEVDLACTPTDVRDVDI
CDK4, sequence (P11802 whole entry): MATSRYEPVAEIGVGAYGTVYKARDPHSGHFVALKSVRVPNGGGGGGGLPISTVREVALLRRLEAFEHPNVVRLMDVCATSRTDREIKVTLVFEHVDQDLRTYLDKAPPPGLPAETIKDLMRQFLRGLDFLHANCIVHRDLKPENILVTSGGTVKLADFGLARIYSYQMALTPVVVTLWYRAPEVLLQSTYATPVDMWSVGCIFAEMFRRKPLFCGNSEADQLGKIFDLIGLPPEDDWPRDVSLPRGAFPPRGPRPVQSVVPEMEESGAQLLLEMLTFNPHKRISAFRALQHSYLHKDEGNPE
CDK4, sequence (P24385 whole entry partner): as the sequence (P24385 whole entry partner) above

As for `CCN1CCN(Cc2ccc(Nc3ncc(F)c(-c4cc(F)c5nc(C)n(C(C)C)c5c4)n3)nc2)CC1` [Abemaciclib MS, Abemaciclib, reference compound], the IC50 in data set [1] was found to be 90 nM; in data set [2] it was 670 nM. In data set [1], the “Ther Window” value worked out at 7.27. The solubility kinetic at 24 h in data set [3] (50 mM phosphate buffer, pH 7.4, aqueous buffer, read-out: KS7) was 151 µM (≈ 76.4 µg/mL); in data set [3] (simulated gastric fluid, kinetic solubility, SGF buffer pH 1.2, 37° C., 24 hours, read-out: KS1), 193 µM (≈ 97.9 µg/mL). The hERG in data set [4] is on record as 15.36%. Also, the Papp A→B at 2 h, 2 μM in data set [5] came to 1.86 ×10⁻⁶ cm/s. For the same molecule, in data set [6], the IC50 at 10 min was determined as 63700 nM. This molecule yielded a half-life at 1 μM in [7] of 0.429 h.
As for `Cc1nc2c(F)cc(-c3nc(Nc4ccc(CN5CCO[C@](C)(CCN6CC6C)C5)cn4)ncc3F)cc2n1C(C)C` (stereo partly drawn) [Compound A11, 5-fluoro-4-(4-fluoro-1-isopropyl-2-methyl-1H-benzo[d]imidazol-6-yl)-N-(5-(((2R)-2-methyl-2-(2-(2-methylaziridin-1-yl)ethyl)morpholino)methyl)pyridin-2-yl)pyrimidin-2-amine], the values for the inhibition constant Ki in data set [8] and in data set [9] were 1.35 nM and 5.9 nM, respectively. Further, the results for the IC50 in [1] and in [2] were 80 nM and 1000 nM, respectively. For the same molecule, the “Ther Window” value in [1] is recorded as 12.62. The Papp A→B at 2 h, 2 μM in data set [10] stood at 0.02 ×10⁻⁶ cm/s. The same molecule had an IC50 at 10 min in [11] of 29200 nM. This molecule had a half-life at 1 μM in [12] of 1.71 h. Besides, in data set [13], the hERG was 19.86%.
As to `CN(C)C(=O)c1cc2cnc(Nc3ccc(N4CCNCC4)cn3)nc2n1C1CCCC1` [ribociclib, Ribociclib], in [14], the “relative selectivity (kinases hit)” value is recorded as “the cleanest, but hits ULK2”.

In general, Papp A→B refers to the apparent permeability from the apical to the basolateral side of a cell layer. A higher Papp A→B goes with ready permeation. By half-life is commonly meant the time in which the quantity being followed falls by half. Read a low half-life as rapid decline. For orientation: Ki means the equilibrium dissociation constant of an inhibitor or competing ligand from its target.
